Values after ≈ are worked out from the molar mass of the structure shown.
Experiment: Solubility in NMP
Format: physicochemical
Conditions: organic solvent or mixture; solvent NMP (N-methylpyrrolidone)

SMILES	solubility [mg/mL]
CC1(C)c2cc(N(c3ccc(-c4ccccc4)cc3)c3ccc(-c4ccccc4)cc3)ccc2-c2ccc(N(c3ccc(-c4ccccc4)cc3)c3ccc(-c4ccccc4)cc3)cc21 [Comparison Example 2, reference compound]	5.2 (≈ 6.24 mM)
Cc1cc(N(c2ccc3c(c2)C(C)(C)c2ccccc2-3)c2ccc3c(c2)C(C)(C)c2ccccc2-3)ccc1-c1ccc(N(c2ccc3c(c2)C(C)(C)c2ccccc2-3)c2ccc3c(c2)C(C)(C)c2ccccc2-3)cc1 [Example 4]	35 (≈ 36.2 mM)
Cc1cc(-c2ccc(N(c3ccc(-c4ccccc4)cc3)c3ccc4c(c3)C(C)(C)c3ccccc3-4)cc2)cc(C)c1N(c1ccc(-c2ccccc2)cc1)c1ccc2c(c1)C(C)(C)c1ccccc1-2 [Example 1]	22 (≈ 24.4 mM)
Cc1cccc(-c2ccc(N(c3ccc(-c4cccc(C)c4)cc3)c3ccc4c(c3)C(C)(C)c3cc(N(c5ccc(-c6cccc(C)c6)cc5)c5ccc(-c6cccc(C)c6)cc5)ccc3-4)cc2)c1 [Example 2]	28 (≈ 31.5 mM)
Cc1cccc(C)c1-c1ccc(N(c2ccc(-c3ccccc3)cc2)c2ccc(-c3ccc(N(c4ccc(-c5ccccc5)cc4)c4ccc(-c5c(C)cccc5C)cc4)cc3)cc2)cc1 [Comparison Example 3, reference compound]	2.9 (≈ 3.42 mM)
c1ccc(-c2ccc(N(c3ccc(-c4ccccc4)cc3)c3ccc(N(c4ccc(-c5ccccc5)cc4)c4ccc(-c5ccccc5)cc4)cc3)cc2)cc1 [Comparison Example 4, reference compound]	2.2 (≈ 3.07 mM)
Cc1cccc(C)c1-c1ccc(N(c2ccc3c(c2)C(C)(C)c2ccccc2-3)c2ccc3c(c2)C(C)(C)c2cc(N(c4ccc(-c5c(C)cccc5C)cc4)c4ccc5c(c4)C(C)(C)c4ccccc4-5)ccc2-3)cc1 [Example 3]	30 (≈ 30.9 mM)

Source: patent US10483329B2, “Hole transporting material, hole transporting layer, OLED display panel electronic device comprising the same” (SHANGHAI TIANMA AM-OLED CO., LTD., priority 2016, dated 2019)
